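Growth conditions: 96-well plates. Treatment: test compound, 48 hours, 5 concentrations. Analysis: linear interpolation between bracketing concentrations; unreached endpoints set to highest concentration. GI50: concentration for 50% inhibition of growth.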 Calls of active or inactive are those of the source. Rule as the data show it: active = GI50 up to about 1.1 µM and inactive = higher.
Legend:
Assay in all cases: NCI anticancer screen, dose series, 48 h
K562 = tested on: K562
CAKI-1 = tested on: CAKI-1
A498 = tested on: A498
MOLT-4 = tested on: MOLT-4
LOX IMVI = tested on: LOX IMVI
HT-29 = tested on: HT-29
SF-295 = tested on: SF-295
SN12C = tested on: SN12C
IGROV-1 = tested on: IGROV-1
EKVX = tested on: EKVX
OVCAR-4 = tested on: OVCAR-4
NCI-H522 = tested on: NCI-H522
OVCAR-8 = tested on: OVCAR-8
SK-MEL-28 = tested on: SK-MEL-28
Malme-3M = tested on: Malme-3M
NCI-H226 = tested on: NCI-H226
RPMI-8226 = tested on: RPMI-8226
NCI-H23 = tested on: NCI-H23
DU-145 = tested on: DU-145
MDA-N = tested on: MDA-N

SMILES | GI50 (K562) | GI50 (CAKI-1) | GI50 (A498) | GI50 (MOLT-4) | GI50 (LOX IMVI) | GI50 (HT-29) | GI50 (SF-295) | GI50 (SN12C) | GI50 (IGROV-1) | GI50 (EKVX) | GI50 (OVCAR-4) | GI50 (NCI-H522) | GI50 (OVCAR-8) | GI50 (SK-MEL-28) | GI50 (Malme-3M) | GI50 (NCI-H226) | GI50 (RPMI-8226) | GI50 (NCI-H23) | GI50 (DU-145) | GI50 (MDA-N)
CC1(C)OB(O)OC1(C)C | > 100 µM (inactive) | > 100 µM (inactive) | > 100 µM (inactive) | > 100 µM (inactive) | > 100 µM (inactive) | > 100 µM (inactive) | > 100 µM (inactive) | > 100 µM (inactive) | > 100 µM (inactive) | > 100 µM (inactive) | > 100 µM (inactive) | > 100 µM (inactive) | > 100 µM (inactive) | > 100 µM (inactive) | > 100 µM (inactive) | > 100 µM (inactive) | > 100 µM (inactive) | > 100 µM (inactive) | – | –
O=C(O)/C(Cl)=C(\Cl)C(=O)NC1C2CC3CC(C2)CC1C3 (centres undefined) | > 100 µM (inactive) | > 100 µM (inactive) | > 100 µM (inactive) | > 100 µM (inactive) | > 100 µM (inactive) | > 100 µM (inactive) | > 100 µM (inactive) | > 100 µM (inactive) | > 100 µM (inactive) | > 100 µM (inactive) | > 100 µM (inactive) | > 100 µM (inactive) | > 100 µM (inactive) | > 100 µM (inactive) | > 100 µM (inactive) | > 100 µM (inactive) | > 100 µM (inactive) | > 100 µM (inactive) | – | –
C=C(Nc1nc2ccc(C)cc2s1)C(=O)C(CC)C(=O)C(CC)CC1C(=O)NC(=O)NC1=O (centres undefined) | – | > 100 µM (inactive) | – | > 100 µM (inactive) | > 100 µM (inactive) | – | > 100 µM (inactive) | > 100 µM (inactive) | > 100 µM (inactive) | > 100 µM (inactive) | > 100 µM (inactive) | > 100 µM (inactive) | > 100 µM (inactive) | > 100 µM (inactive) | – | > 100 µM (inactive) | – | > 100 µM (inactive) | > 100 µM (inactive) | > 100 µM (inactive)
CCOC(=O)c1c(C)n(Cc2ccccc2)c2c1cc(O)c1[nH]c3c(c12)CCCC3 | 3.33 µM (inactive) | 10.6 µM (inactive) | – | 2.43 µM (inactive) | 4.85 µM (inactive) | 13.4 µM (inactive) | 3.37 µM (inactive) | 5.47 µM (inactive) | 3.44 µM (inactive) | 2.69 µM (inactive) | 1.07 µM (active) | 1.16 µM (inactive) | 6.32 µM (inactive) | 5.18 µM (inactive) | 3.79 µM (inactive) | – | 2.14 µM (inactive) | 10.4 µM (inactive) | 12.6 µM (inactive) | 13.6 µM (inactive)
COc1ccc(N2C(=O)CSC2c2cc3cc(Br)ccc3nc2Cl)cc1 (centres undefined) | 14.1 µM (inactive) | 27.5 µM (inactive) | > 50 µM (inactive) | 21 µM (inactive) | 37.6 µM (inactive) | > 50 µM (inactive) | 19.9 µM (inactive) | > 50 µM (inactive) | > 50 µM (inactive) | > 50 µM (inactive) | > 50 µM (inactive) | 27.4 µM (inactive) | > 50 µM (inactive) | > 50 µM (inactive) | > 50 µM (inactive) | > 50 µM (inactive) | 41.8 µM (inactive) | > 50 µM (inactive) | > 50 µM (inactive) | –
CCc1nc2ccc(/N=N/N(C)C)cc2[nH]1 | > 100 µM (inactive) | > 100 µM (inactive) | – | > 100 µM (inactive) | – | > 100 µM (inactive) | – | > 100 µM (inactive) | > 100 µM (inactive) | > 100 µM (inactive) | > 100 µM (inactive) | > 100 µM (inactive) | > 100 µM (inactive) | > 100 µM (inactive) | > 100 µM (inactive) | > 100 µM (inactive) | > 100 µM (inactive) | > 100 µM (inactive) | > 100 µM (inactive) | > 100 µM (inactive)
Cc1cc(=O)nc(S(=O)(=O)NC(=S)Nc2ccc(Br)cc2)[nH]1 | – | 65.6 µM (inactive) | > 100 µM (inactive) | 36 µM (inactive) | – | > 100 µM (inactive) | > 100 µM (inactive) | > 100 µM (inactive) | 73.1 µM (inactive) | 42.1 µM (inactive) | 93.5 µM (inactive) | 18.6 µM (inactive) | > 100 µM (inactive) | > 100 µM (inactive) | > 100 µM (inactive) | > 100 µM (inactive) | 33.4 µM (inactive) | > 100 µM (inactive) | > 100 µM (inactive) | –
CCOc1ccc(C2=NN(CC)C(=O)C(C3C(=O)N(c4ccccc4)N=C3C)C2)cc1 (centres undefined) | > 100 µM (inactive) | > 100 µM (inactive) | > 100 µM (inactive) | > 100 µM (inactive) | > 100 µM (inactive) | > 100 µM (inactive) | > 100 µM (inactive) | – | > 100 µM (inactive) | > 100 µM (inactive) | > 100 µM (inactive) | > 100 µM (inactive) | > 100 µM (inactive) | > 100 µM (inactive) | > 100 µM (inactive) | > 100 µM (inactive) | > 100 µM (inactive) | > 100 µM (inactive) | – | –
